Data published in patent US20210254056A1, “IDENTIFICATION AND TARGETED MODULATION OF GENE SIGNALING NETWORKS” (CAMP4 THERAPEUTICS CORPORATION, priority 2017, published 2021).

System: hepatocytes
Experiment: RNA-seq of hepatocytes treated with Phase III failure compounds
Protocol: RNA-seq was performed to determine the effects of the compounds on hepatocytes.
Significance was determined by the criteria of FPKM≥0.5, a log 2(fold-change)≥1, and a […].

Compound: CCCCCCCCCCCCCCCCOCCCOP(=O)(O)CO[C@H](CO)Cn1ccc(N)nc1=O [CMX001 (Brincidofovir), Brincidofovir]
- significant changes in gene expression (RNA-seq of Table 36, FPKM≥0.5, log 2(fold-change)≥1, q-value≤0.05): not observed to cause any significant changes in gene expression
- significant modulation of expression of any of the genes analyzed (RNA-seq, p≤0.05, hepatocytes): not observed to significantly modulate expression
- effect on disease gene expression (RNA-seq, hepatocytes): no effect on any disease gene

Compound: C=CC(=O)Nc1cccc(Nc2nc(Nc3ccc(N4CCN(C(C)=O)CC4)cc3OC)ncc2C(F)(F)F)c1 [CO-1686 (Rociletinib), Rociletinib]
- Number (#) of genes having significantly changed expression (RNA-seq, Phase III failure compounds, hepatocytes, significance: FPKM≥0.5, log 2(fold-change)≥1, q-value≥0.05 (so in the source)): 391
- B2M expression, RNA-seq result (gene B2M, hepatocytes): −0.08
- B9D2 expression, RNA-seq result (gene B9D2, hepatocytes): −0.29
- BAAT expression, RNA-seq result (gene BAAT, hepatocytes): 0.22
- BBOX1 expression, RNA-seq result (gene BBOX1, hepatocytes): −0.45
- BBS10 expression, RNA-seq result (gene BBS10, hepatocytes): −0.28
- BCHE expression, RNA-seq result (gene BCHE, hepatocytes): −0.79
- BCKDHB expression, RNA-seq result (gene BCKDHB, hepatocytes): −0.38
- BCKDK expression, RNA-seq result (gene BCKDK, hepatocytes): −0.45
- BCO1 expression, RNA-seq result (gene BCO1, hepatocytes): −0.53
- BCR expression, RNA-seq result (gene BCR, hepatocytes): −0.26
- BLNK expression, RNA-seq result (gene BLNK, hepatocytes): 0.75
- BLOC1S3 expression, RNA-seq result (gene BLOC1S3, hepatocytes): 0.76
- BMPR1A expression, RNA-seq result (gene BMPR1A, hepatocytes): 0.07
- BRAF expression, RNA-seq result (gene BRAF, hepatocytes): 0.32
- BSCL2 expression, RNA-seq result (gene BSCL2, hepatocytes): −0.58
- BTD expression, RNA-seq result (gene BTD, hepatocytes): 0.25
- C4A expression, RNA-seq result (gene C4A, hepatocytes): 0.16
- C9 expression, RNA-seq result (gene C9, hepatocytes): −0.21
- C10orf10 expression, RNA-seq result (gene C10orf10, hepatocytes): 0.81
- C10orf11 expression, RNA-seq result (gene C10orf11, hepatocytes): 0.1
- C15orf41 expression, RNA-seq result (gene C15orf41, hepatocytes): 0.03
- CA2 expression, RNA-seq result (gene CA2, hepatocytes): 0.48
- CA5A expression, RNA-seq result (gene CA5A, hepatocytes): −0.02
- CA12 expression, RNA-seq result (gene CA12, hepatocytes): 0.59
- CAV1 expression, RNA-seq result (gene CAV1, hepatocytes): −0.47
- CCND1 expression, RNA-seq result (gene CCND1, hepatocytes): −2.24
- CD46 expression, RNA-seq result (gene CD46, hepatocytes): −0.02
- CD81 expression, RNA-seq result (gene CD81, hepatocytes): 0.02
- CD320 expression, RNA-seq result (gene CD320, hepatocytes): −0.58
- CDAN1 expression, RNA-seq result (gene CDAN1, hepatocytes): 0.02
- CDH1 expression, RNA-seq result (gene CDH1, hepatocytes): −0.25
- CEP19 expression, RNA-seq result (gene CEP19, hepatocytes): −0.43
- CEP83 expression, RNA-seq result (gene CEP83, hepatocytes): −0.13
- CEP164 expression, RNA-seq result (gene CEP164, hepatocytes): −0.32
- CEP290 expression, RNA-seq result (gene CEP290, hepatocytes): −0.17
- CFB expression, RNA-seq result (gene CFB, hepatocytes): 0.17
- CFHR2 expression, RNA-seq result (gene CFHR2, hepatocytes): −0.16
- CHRM3 expression, RNA-seq result (gene CHRM3, hepatocytes): −0.14
- CIDEC expression, RNA-seq result (gene CIDEC, hepatocytes): 0.24
- CLDN1 expression, RNA-seq result (gene CLDN1, hepatocytes): −0.71
- COG1 expression, RNA-seq result (gene COG1, hepatocytes): −0.28
